Structures can show the parent of a compound that is named as a salt.
Test system: not given
Test: not given
Conditions: not given

Row | SMILES | melting point [°C]
1 | CN(C)CCCNS(=O)(=O)c1ccc2c(c1)CNCC2 (as salt: hydrochloride) | 230 to 234
2 | O=S(=O)(NCCCN1CC=CCC1)c1ccc2c(c1)CNCC2 (as salt: hydrochloride) [compound 9, N-[3-(3,6-dihydropyridin-1(2H)-yl)propyl]-1,2,3,4-tetrahydroisoquinoline-7-sulfonamide] | > 250
3 | O=S(=O)(NCCCN1CC=CC1)c1ccc2c(c1)CNCC2 (as salt: hydrochloride) [compound 13, N-[3-(2,5-dihydro-1H-pyrrol-1-yl)propyl]-1,2,3,4-tetrahydroisoquinoline-7-sulfonamide] | 228 to 231
4 | O=S(=O)(NCCCN1CCN(Cc2ccccc2)CC1)c1ccc2c(c1)CNCC2 (as salt: hydrochloride) [compound 17, N-[3-(4-benzylpiperazin-1-yl)propyl]-1,2,3,4-tetrahydroisoquinoline-7-sulfonamide] | 244 to 249
5 | CCN(CC)CCCNS(=O)(=O)c1ccc2c(c1)CN(Cc1ccccc1)CC2 (as salt: oxalate) [compound 5, 2-benzyl-N-[3-(diethylamino)propyl]-1,2,3,4-tetrahydroisoquinoline-7-sulfonamide] | 91 to 95
6 | CCN(CC)CCCNS(=O)(=O)c1ccc2c(c1)CN(CC1CC1)CC2 (as salt: oxalate) [compound 6, 2-(cyclopropylmethyl)-N-[3-(diethylamino)propyl]-1,2,3,4-tetrahydroisoquinoline-7-sulfonamide] | 98 to 103
7 | CCN(CC)CCCNS(=O)(=O)c1ccc2c(c1)CN(CC1CCCCC1)CC2 (as salt: oxalate) [compound 7, 2-(cyclohexylmethyl)-N-[3-(diethylamino)propyl]-1,2,3,4-tetrahydroisoquinoline-7-sulfonamide] | 144 to 147
8 | CCN(CC)CCCNS(=O)(=O)c1ccc2c(c1)CN(C(C)C)CC2 (as salt: oxalate) [compound 10, N-[3-(diethylamino)propyl]-2-isopropyl-1,2,3,4-tetrahydroisoquinoline-7-sulfonamide] | 54 to 59
9 | CCN(CC)CCCNS(=O)(=O)c1ccc2c(c1)CN(Cc1cccs1)CC2 (as salt: oxalate) [compound 11, N-[3-(diethylamino)propyl]-2-(2-thienylmethyl)-1,2,3,4-tetrahydroisoquinoline-7-sulfonamide] | 109 to 115
10 | CCN(CC)CCCNS(=O)(=O)c1ccc2c(c1)CN(Cc1ccsc1)CC2 (as salt: oxalate) [compound 12, N-[3-(diethylamino)propyl]-2-(3-thienylmethyl)-1,2,3,4-tetrahydroisoquinoline-7-sulfonamide] | 89 to 95
11 | CCN(CC)CCCNS(=O)(=O)c1ccc2c(c1)CN(C1CCCCC1)CC2 (as salt: oxalate) [compound 14, 2-cyclohexyl-N-[3-(diethylamino)propyl]-1,2,3,4-tetrahydroisoquinoline-7-sulfonamide] | 55 to 60
12 | CN1CCc2ccc(S(=O)(=O)NCCCN3CC=CC3)cc2C1 (as salt: oxalate) [compound 16, N-[3-(2,5-dihydro-1H-pyrrol-1-yl)propyl]-2-methyl-1,2,3,4-tetrahydroisoquinoline-7-sulfonamide] | 99 to 104
13 | CC1CCCCN1CCCNS(=O)(=O)c1ccc2c(c1)CNCC2 (racemic) (as salt: hydrochloride) | 65 to 70

Next, values leading:

Row | melting point [°C] | SMILES
14 | 237 to 241 | O=S(=O)(NCCCN1CCCC1)c1ccc2c(c1)CNCC2 (as salt: hydrochloride) [compound 18, N-(3-pyrrolidin-1-ylpropyl)-1,2,3,4-tetrahydroisoquinoline-7-sulfonamide]
15 | 238 to 245 | O=S(=O)(NCCCN1CCOCC1)c1ccc2c(c1)CNCC2 (as salt: hydrochloride) [compound 19, N-(3-morpholin-4-ylpropyl)-1,2,3,4-tetrahydroisoquinoline-7-sulfonamide]
16 | 130 to 141 | O=S(=O)(NCCCN1CCCC1)c1ccc2c(c1)CN(CC1CCCCC1)CC2 (as salt: oxalate) [compound 21, 2-(cyclohexylmethyl)-N-(3-pyrrolidin-1-ylpropyl)-1,2,3,4-tetrahydroisoquinoline-7-sulfonamide]
17 | 50 to 60 | CN1CCCC1CCNS(=O)(=O)c1ccc2c(c1)CN(CC1CC1)CC2 (racemic) (as salt: oxalate) [compound 22, (+/−)-2-(cyclopropylmethyl)-N-[2-(1-methylpyrrolidin-2-yl)ethyl]-1,2,3,4-tetrahydroisoquinoline-7-sulfonamide]
18 | 77 to 82 | CN1CCCC1CCNS(=O)(=O)c1ccc2c(c1)CN(Cc1ccccc1)CC2 (racemic) (as salt: oxalate) [compound 23, (+/−)-2-benzyl-N-[2-(1-methylpyrrolidin-2-yl)ethyl]-1,2,3,4-tetrahydroisoquinoline-7-sulfonamide]
19 | 103 to 110 | CC(C)c1ccc(CN2CCc3ccc(S(=O)(=O)NCCC4CCCN4C)cc3C2)cc1 (racemic) (as salt: oxalate) [compound 24, (+/−)-2-(4-isopropylbenzyl)-N-[2-(1-methylpyrrolidin-2-yl)ethyl]-1,2,3,4-tetrahydroisoquinoline-7-sulfonamide]
20 | 106 to 109 | CN1CCCC1CCNS(=O)(=O)c1ccc2c(c1)CN(Cc1ccc3c(c1)OCO3)CC2 (racemic) (as salt: oxalate) [compound 25, (+/−)-2-(1,3-benzodioxol-5-ylmethyl)-N-[2-(1-methylpyrrolidin-2-yl)ethyl]-1,2,3,4-tetrahydroisoquinoline-7-sulfonamide]
21 | 86 to 110 | CN1CCCC1CCNS(=O)(=O)c1ccc2c(c1)CN(Cc1ccc(Br)cc1)CC2 (racemic) (as salt: oxalate) [compound 30, (+/−)-2-(4-bromobenzyl)-N-[2-(1-methylpyrrolidin-2-yl)ethyl]-1,2,3,4-tetrahydroisoquinoline-7-sulfonamide]
22 | 87 to 90 | COc1ccc(OC)c(CN2CCc3ccc(S(=O)(=O)NCCC4CCCN4C)cc3C2)c1 (racemic) (as salt: oxalate) [compound 31, (+/−)-2-(2,5-dimethoxybenzyl)-N-[2-(1-methylpyrrolidin-2-yl)ethyl]-1,2,3,4-tetrahydroisoquinoline-7-sulfonamide]
23 | 66 to 77 | CCC(C)CN1CCc2ccc(S(=O)(=O)NCCC3CCCN3C)cc2C1 (racemic) (as salt: oxalate) [compound 32, (+/−)-2-(2-methylbutyl)-N-[2-(1-methylpyrrolidin-2-yl)ethyl]-1,2,3,4-tetrahydroisoquinoline-7-sulfonamide]
24 | 80 to 107 | COc1cccc(CN2CCc3ccc(S(=O)(=O)NCCC4CCCN4C)cc3C2)c1 (racemic) (as salt: oxalate) [compound 33, (+/−)-2-(3-methoxybenzyl)-N-[2-(1-methylpyrrolidin-2-yl)ethyl]-1,2,3,4-tetrahydroisoquinoline-7-sulfonamide]
25 | 121 to 125 | Cc1cc(C)cc(CN2CCc3ccc(S(=O)(=O)NCCC4CCCN4C)cc3C2)c1 (racemic) (as salt: oxalate) [compound 34, (+/−)-2-(3,5-dimethyl-benzyl)-N-[2-(1-methylpyrrolidin-2-yl)ethyl]-1,2,3,4-tetrahydroisoquinoline-7-sulfonamide]

Molecular target: native histamine H3 receptor (Rattus norvegicus, UniProt Q9QYN8)
Test: in vitro affinity assay on native histamine H3 receptor, [3H]-N-α-methylhistamine binding, adult rat brain membrane preparation
Conditions: rat brain membranes, read-out: Ki with respect to H3 receptors
Text: More particularly, the compounds of the invention are histamine H3-receptor antagonists. H3 receptors are known to those skilled in the art and their advantage in therapeutics has been described in the literature (“Histamine H3 receptor antagonists” Exp. Opinion Ther. Patents (2000) 10 (7):1045-1055). Thus, the compounds of the invention of formula I were subjected to an in vitro affinity assay on the native histamine H3 receptor in an adult rat brain membrane preparation, by specific binding of [^3H]-N-α-methylhistamine to this receptor, according to the methods described by A. Korte et al., in Biochem. Biophys. Res. Commun. 168, 979-986 (1990) and by R. E. West Jr. et al., in Mol. Pharmacol. 38, 610-613 (1990).

native histamine H3 receptor, sequence (Q9QYN8 1-397 isoform Q9QYN8-3): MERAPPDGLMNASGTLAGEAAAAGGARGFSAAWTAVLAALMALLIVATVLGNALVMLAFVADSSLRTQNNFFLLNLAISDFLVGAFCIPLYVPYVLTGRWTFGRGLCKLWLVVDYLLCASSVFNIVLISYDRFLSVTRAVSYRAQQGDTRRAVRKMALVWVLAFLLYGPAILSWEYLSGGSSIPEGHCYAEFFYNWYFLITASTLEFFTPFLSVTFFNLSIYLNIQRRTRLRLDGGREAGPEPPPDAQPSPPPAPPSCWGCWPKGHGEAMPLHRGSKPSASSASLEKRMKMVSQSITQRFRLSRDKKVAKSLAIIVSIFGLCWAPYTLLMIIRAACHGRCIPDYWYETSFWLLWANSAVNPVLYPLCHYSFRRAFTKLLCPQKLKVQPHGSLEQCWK

Row | Ki [nM] | SMILES
26 | 0.3 | CN1CCCC1CCNS(=O)(=O)c1ccc2c(c1)CN(CC1CCCCC1)CC2 (racemic) [compound 15, (+/−)-2-(cyclohexylmethyl)-N-[2-(1-methylpyrrolidin-2-yl)ethyl]-1,2,3,4-tetrahydroisoquinoline-7-sulfonamide]

Test system: food intake
Test: food intake in rats fasting for 24 h
Assay type: in vivo, Wistar rats
Conditions: 10 mg/kg i.p., during the first hour after administration, rats fasted 24 h
Procedure: Furthermore, the compounds of the invention of formula I were subjected to in vivo tests showing their ability to reduce food intake in rats fasting for 24 h.
The experiments were carried out on Wistar rats. The rats were placed individually in transparent plastic cages 48×26, 5×21.5 cm. These cages were placed in a room insulated against any noise, at a temperature of 20 to 22° C., with a light cycle from 7 o'clock in the morning to 7 o'clock in the evening, the rats having free access to water and to the food.
Before the experiment was carried out, the rats were made to fast for 24 h, with access, however, to water ad libitum. On the day of the experiment, the carrier or the compound according to the present invention was administered i.p. or p.o., 15 or 30 minutes before a known amount of food (30 g) was made available.
Each hour, for 6 hours, the amount of food ingested by the rat was measured.

Row | SMILES | decrease of food intake [%]
27 | CC(C)c1ccc(CN2CCc3ccc(S(=O)(=O)NCCC4CCCN4C)cc3C2)cc1 (racemic) [compound 24, (+/−)-2-(4-isopropylbenzyl)-N-[2-(1-methylpyrrolidin-2-yl)ethyl]-1,2,3,4-tetrahydroisoquinoline-7-sulfonamide] | 54

Molecular target: T1, human histamine H3 receptor transfected into CHO cells (Homo sapiens, UniProt Q9Y5N1)
T1 construct: expressed in transfected cells; host or cells: CHO cells
Test: cAMP formation assay, inhibition of R-α-methylhistamine agonism, CHO cells (EIA kit)
Assay type: cell-based
Conditions: human H3 in CHO cells, EIA kit (Amersham)
Procedure: The compounds of the invention of formula I were also subjected to a cAMP formation assay, on the human histamine H3 receptor transfected into CHO cells, by inhibition of the agonism caused by the specific binding of R-α-methylhistamine to this receptor, according to the methods described by T. W. Lovenberg et al., in J. Pharmacol. Exp. Ther. 293, 771-778 (2000).
By way of example, compound 15, included in Table 1, has an IC50<10 nM, using an EIA kit (Amersham) to measure cAMP formation, on the human histamine H3 receptor transfected into CHO cells, by inhibition of the agonism caused by the specific binding of R-α-methylhistamine to this receptor.

T1 sequence (Q9Y5N1 whole entry): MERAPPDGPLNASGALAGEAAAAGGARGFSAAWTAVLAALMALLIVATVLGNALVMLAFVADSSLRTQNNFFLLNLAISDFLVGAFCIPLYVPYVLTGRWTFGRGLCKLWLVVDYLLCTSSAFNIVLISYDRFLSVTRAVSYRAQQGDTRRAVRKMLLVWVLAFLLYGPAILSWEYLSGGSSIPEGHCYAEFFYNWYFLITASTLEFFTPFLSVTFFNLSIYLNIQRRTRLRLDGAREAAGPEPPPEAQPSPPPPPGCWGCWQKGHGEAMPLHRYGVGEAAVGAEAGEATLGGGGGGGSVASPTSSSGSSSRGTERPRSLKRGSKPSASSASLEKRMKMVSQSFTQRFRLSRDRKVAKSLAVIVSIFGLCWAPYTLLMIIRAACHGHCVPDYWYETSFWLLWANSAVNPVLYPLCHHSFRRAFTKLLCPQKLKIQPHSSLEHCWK

Row | IC50 [nM] | SMILES
28 | < 10 | CN1CCCC1CCNS(=O)(=O)c1ccc2c(c1)CN(CC1CCCCC1)CC2 (racemic) [compound 15, (+/−)-2-(cyclohexylmethyl)-N-[2-(1-methylpyrrolidin-2-yl)ethyl]-1,2,3,4-tetrahydroisoquinoline-7-sulfonamide]

Source: US8524700B2, “Tetrahydroisoquinoline sulfonamide derivatives, the preparation thereof, and the use of the same in therapeutics” (Sanofi, priority 2004, dated 2013)
